Active and inactive are the calls of the source. The rule behind the calls is not given here.
Experiments:
[1] = molecular target: T1, Bromodomain-containing protein 4 (Homo sapiens, UniProt O60885); assay: Inhibition of BRD4 BD1 (57 to 168 residues) (unknown origin) transfected in Escherichia coli (DE3) using FAM-labeled JQ-1 as fluorescent substrate at 50 uM incubated for 30 mins by competitive fluorescence polarization method relative to control
[2] = molecular target: T1, Bromodomain-containing protein 4; assay: Inhibition of BRD4 BD1 (57 to 168 residues) (unknown origin) transfected in Escherichia coli (DE3) using FAM-labeled JQ-1 as fluorescent substrate at 5 uM incubated for 30 mins by competitive fluorescence polarization method relative to control
[3] = molecular target: T1, Bromodomain-containing protein 4; assay: Inhibition of BRD4 BD2 (352 to 457 residues) (unknown origin) transfected in Escherichia coli (DE3) using FAM-labeled JQ-1 as fluorescent substrate at 50 uM incubated for 30 mins by competitive fluorescence polarization method relative to control
[4] = molecular target: T1, Bromodomain-containing protein 4; assay: Inhibition of BRD4 BD2 (352 to 457 residues) (unknown origin) transfected in Escherichia coli (DE3) using FAM-labeled JQ-1 as fluorescent substrate at 5 uM incubated for 30 mins by competitive fluorescence polarization method relative to control
[5] = molecular target: T1, Bromodomain-containing protein 4; assay: Inhibition of BRD4 BD1 (57 to 168 residues) (unknown origin) transfected in Escherichia coli (DE3) using FAM-labeled JQ-1 as fluorescent substrate at 100 uM incubated for 30 mins by competitive fluorescence polarization method relative to control
[6] = molecular target: T1, Bromodomain-containing protein 4; assay: Inhibition of BRD4 BD2 (352 to 457 residues) (unknown origin) transfected in Escherichia coli (DE3) using FAM-labeled JQ-1 as fluorescent substrate at 100 uM incubated for 30 mins by competitive fluorescence polarization method relative to control
[7] = molecular target: T1, Bromodomain-containing protein 4; assay: Inhibition of BRD4 BD1 (unknown origin) using FAM-labeled JQ-1 as fluorescent substrate assessed as inhibition constant incubated for 30 mins by competitive fluorescence polarization method
[8] = test system: RAW264.7; assay: Antiinflammatory activity in mouse RAW264.7 cells assessed as inhibition of LPS-induced NO production at 5 uM preincubated for 2 hrs followed by LPS stimulation and measured after 22 hrs by Griess reagent-based assay relative to control; type: functional; details: time 24 hrs
[9] = test system: RAW264.7; assay: Antiinflammatory activity in mouse RAW264.7 cells assessed as inhibition of LPS-induced NO production at 10 uM preincubated for 2 hrs followed by LPS stimulation and measured after 22 hrs by Griess reagent-based assay relative to control; type: functional; details: time 24 hrs
[10] = test system: Mus musculus; assay: Protection against LPS-induced sepsis in C57BL/6 mouse model assessed as reduction in hypothermia at 10 mg/kg, ip qd administered for 3 days followed by LPS stimulation for 12 hrs and measured every 1 hr by digital thermometer; type: functional, organism-based; details: time 84.0 hrs
[11] = molecular target: T1, Bromodomain-containing protein 4; assay: Binding affinity to His-tagged biotinylated BRD4 BD1 (unknown origin) assessed as dissociation constant by biolayer interferometry analysis
[12] = molecular target: T1, Bromodomain-containing protein 4; assay: Binding affinity to His-tagged biotinylated BRD4 BD1 (unknown origin) assessed as binding constant (Kon) by biolayer interferometry analysis
[13] = molecular target: T1, Bromodomain-containing protein 4; assay: Binding affinity to His-tagged biotinylated BRD4 BD1 (unknown origin) assessed as dissociation rate constant by biolayer interferometry analysis

Structure (SMILES)	inhibition [5]	inhibition [6]	Ki [7]	also measured
Cc1cc2nc(SCC(=O)N(C)c3cccc(Cl)c3)[nH]c(=O)c2[nH]1	–	–	–	inhibition [1]: 14.7%; inhibition [2]: 4.63%; inhibition [3]: 17.2%; inhibition [4]: 3.96%
CCOc1ccc(-c2nc(SCc3ccccc3Cl)[nH]c(=O)c2C#N)cc1OCC	56.8%	55.9%	–	–
CCOc1cc(-c2nc(SCc3ccccc3Cl)[nH]c(=O)c2C#N)ccc1OC	65.3%	62.4%	–	–
COc1ccc(-c2nc(SCc3ccccc3Cl)[nH]c(=O)c2C#N)cc1C	53.1%	55.1%	–	–
COc1ccc(-c2nc(SCc3ccccc3Cl)[nH]c(=O)c2C#N)cc1	44.1%	18.8%	–	–
COc1ccc(-c2nc(SCCc3ccccc3Cl)[nH]c(=O)c2C#N)cc1OC	–	–	7580 nM	–
COc1cc(-c2nc(SCc3cc(C)cc(C)c3)[nH]c(=O)c2C#N)cc(OC)c1OC	–	–	1480 nM	inhibition at 5 µM [8]: 69.3%; inhibition at 10 µM [9]: 92.1%
COc1cccc(-c2nc(SCc3ccccc3Cl)[nH]c(=O)c2C#N)c1OC	50.7%	51.3%	–	–
COc1ccccc1-c1nc(SCc2ccccc2Cl)[nH]c(=O)c1C#N	44.3%	47.5%	–	–
COC(=O)c1cc(-c2nc(SCc3ccccc3Cl)[nH]c(=O)c2C#N)ccc1OC	42.9%	48%	–	–
COc1cc(-c2nc(SCc3cccc(C)c3C)[nH]c(=O)c2C#N)cc(OC)c1OC	–	–	1730 nM	inhibition at 5 µM [8]: 51.8%; inhibition at 10 µM [9]: 78.2%
COc1ccc(-c2nc(NCc3ccccc3)[nH]c(=O)c2C#N)cc1OC	–	–	16300 nM	–
Oc1ccc(-c2[nH]c(-c3ccccc3O)nc2-c2ccccc2)cc1	–	–	–	inhibition [1]: 53%; inhibition [2]: 11.8%; inhibition [3]: 17.2%; inhibition [4]: 3.96%
COc1cc(OC)cc(-c2nc(SCc3ccccc3Cl)[nH]c(=O)c2C#N)c1	40.3%	47.2%	–	–
COc1ccc(OC)c(-c2nc(SCc3ccccc3Cl)[nH]c(=O)c2C#N)c1	51.6%	43%	–	–
COc1cc(-c2nc(SCc3ccccc3Cl)[nH]c(=O)c2C#N)cc(Cl)c1OC	59.7%	59.6%	–	–
COc1ccc(-c2nc(SCc3ccccc3Cl)[nH]c(=O)c2C#N)cc1OC	65.1%	68.7%	3230 nM	–
COc1cc(-c2nc(SCc3ccccc3Cl)[nH]c(=O)c2C#N)cc(O)c1OC	69.3%	63.4%	1950 nM	–
N#Cc1c(-c2ccc3c(c2)OCCO3)nc(SCc2ccccc2Cl)[nH]c1=O	55.5%	53.8%	–	–
COc1cc(-c2nc(SCc3ccccc3[N+](=O)[O-])[nH]c(=O)c2C#N)cc(OC)c1OC	–	–	790 nM	inhibition at 5 µM [8]: 29.3%; inhibition at 10 µM [9]: 32.4%

Structure (SMILES)	inhibition [5]	inhibition [6]	Ki [7]	also measured
COc1cc(-c2nc(SCc3ccccc3C(F)(F)F)[nH]c(=O)c2C#N)cc(OC)c1OC	–	–	1190 nM	inhibition at 5 µM [8]: 62.4%; inhibition at 10 µM [9]: 81%
COc1ccccc1NS(=O)(=O)c1cc(-c2n[nH]c(=O)c3ccccc23)ccc1C	–	–	–	inhibition [1]: 19%; inhibition [3]: 21.7%; inhibition [4]: 1.26%
COc1cc(-c2nc(SCc3ccccc3Cl)[nH]c(=O)c2C#N)ccc1OC(F)F	54.4%	59.2%	–	–
COc1ccc(-c2nc(SCc3ccccc3Cl)[nH]c(=O)c2C#N)c(OC)c1OC	53.1%	51.7%	–	–
N#Cc1c(-c2ccc(OC(F)(F)F)cc2)nc(SCc2ccccc2Cl)[nH]c1=O	45.8%	17.1%	–	–
Cc1sc2c(c1C)C(c1ccc(Cl)cc1)=N[C@@H](CC(=O)Nc1ccc(O)cc1)c1nnc(C)n1-2 [BIRABRESIB]	–	–	–	inhibition at 5 µM [8]: 93.4%; inhibition at 10 µM [9]: 99.9%; Activity [10]: Active
COc1cc(-c2nc(SCc3ccccc3Cl)[nH]c(=O)c2C#N)cc(OC)c1OC	84.7%	74.3%	1740 nM	Kd [11]: 756 nM; K [12]: 3.84 10^4/Ms; Kdiss [13]: 2.9 10^-2/s; inhibition at 5 µM [8]: 75.2%; inhibition at 10 µM [9]: 99.7%
COc1cc(-c2nc(SCc3ccccc3F)[nH]c(=O)c2C#N)cc(OC)c1OC	–	–	870 nM	inhibition at 5 µM [8]: 33.7%; inhibition at 10 µM [9]: 94.1%
COc1cc(-c2nc(SCc3cccc(C)c3)[nH]c(=O)c2C#N)cc(OC)c1OC	–	–	1250 nM	inhibition at 5 µM [8]: 14.9%; inhibition at 10 µM [9]: 75.5%
N#Cc1c(O)nc(SCc2ccccc2Cl)nc1-c1ccccc1	47%	46.5%	12300 nM	inhibition [1]: 71.9%; inhibition [2]: 7.01%; inhibition [3]: 83.5%; inhibition [4]: 19.3%; Kd [11]: 184000 nM; K [12]: 7.28 10^2/Ms; Kdiss [13]: 1.34 10^-1/s
CCOc1ccc(-c2nc(SCc3ccccc3Cl)[nH]c(=O)c2C#N)cc1OC	64.7%	55.7%	–	–
COc1ccc(-c2nc(SCc3ccccc3Cl)ncc2C#N)cc1OC	–	–	4930 nM	–
COc1ccc(CNC(=O)C2CCCN(c3nc4c(-c5ccc(C)cc5)csc4c(=O)[nH]3)C2)cc1 (stereo not drawn)	–	–	–	inhibition [1]: 21.9%; inhibition [2]: 2.1%; inhibition [3]: 29.7%; inhibition [4]: 3.8%
CNC(=O)c1cccc(-c2nc(SCc3ccccc3Cl)[nH]c(=O)c2C#N)c1	66.4%	65.9%	–	–
COc1cc(-c2nc(SCc3ccc(C)cc3)[nH]c(=O)c2C#N)cc(OC)c1OC	–	–	1380 nM	inhibition at 5 µM [8]: 65.3%; inhibition at 10 µM [9]: 87.4%
Cc1cccc(OCc2occc2C(=O)N(C)Cc2cc(O)nc3ccccc23)c1	–	–	–	inhibition [1]: 11.3%; inhibition [2]: 3.59%; inhibition [3]: 15.1%; inhibition [4]: 4.71%
COc1cccc(-c2nc(SCc3ccccc3Cl)[nH]c(=O)c2C#N)c1	45.3%	45.1%	–	–
COc1ccc(-c2nc(SCc3ccccc3Cl)n(C)c(=O)c2C#N)cc1OC	–	–	18300 nM	inhibition at 5 µM [8]: 5.19%; inhibition at 10 µM [9]: 14.9%
COc1cccc(-c2cc(=O)[nH]c(N3CCN(c4ccccc4)CC3)n2)c1	–	–	–	inhibition [1]: 39%; inhibition [2]: 1.56%; inhibition [3]: 41.7%; inhibition [4]: 11%
N#Cc1c(-c2ccc3c(c2)OCO3)nc(SCc2ccccc2Cl)[nH]c1=O	45.3%	44.3%	–	–
